Laboratory results reported in patent publication US7173034B2, “Respiratory syncytial virus replication inhibitors” (Janssen Pharmaceutica, N.V., priority 1999, dated 2007).
pIC50: −log10 of the molar value. Values belong to the compound of their own block, whether it stands above or below them.

Columns and labels:
[1] = system: Respiratory Syncytial Virus; assay: microbe, parasite or virus in culture; type: cell-based; details: for SI (selectivity index, CC50 divided by IC50): CC50 (HeLa cells) / IC50 (Respiratory Syncytial Virus); for pIC50: human respiratory syncytial virus, 168 h, Respiratory Syncytial Virus in HeLa cells, seven days after infection, tetrazolium-based colorimetric assay, read-out: IC50 (antiviral activity, protection against cytopathology caused by virus)
Method: (§1) The percent protection against cytopathology caused by viruses (antiviral activity or IC50) achieved by tested compounds and their cytotoxicity (CC50) were both calculated from dose-response curves.
Automated tetrazolium-based colorimetric assays were used for determination of IC50 and CC50 of test compounds. Flat-bottom, 96-well plastic microtiter trays were filled with 180 μl of Eagle's Basal Medium, supplemented with 5% FCS (0% for FLU) and 20 mM Hepes buffer. Subsequently, stock solutions (7.8× final test concentration) of compounds were added in 45 μl volumes to a series of triplicate wells so as to allow simultaneous evaluation of their effects on virus- and mock-infected cells. Five five-fold dilutions were made directly in the microtiter trays using a robot system. Untreated virus controls, and HeLa cell controls were included in each test. Approximately 100 TCID50 of Respiratory Syncytial Virus was added to two of the three rows in a volume of 50 μl. The same volume of medium was added to the third row to measure the cytotoxicity of the compounds at the same concentrations as those used to measure the antiviral activity. After two hours of incubation, a suspension (4×10^5 cells/ml) of HeLa cells were added to all wells in a volume of 50 μl. The cultures were incubated at 37° C. in a 5% CO2 atmosphere. Seven days after infection the cytotoxicity and the antiviral activity was examined spectrophotometrically. To each well of the microtiter tray, 25 μl of a solution of MTT (3-(4,5-dimethylthiazol-2-yl)-2,5-diphenyltetrazolium bromide) was added. The trays were further incubated at 37° C. for 2 hours, after which the medium was removed from each cup. Solubilization of the formazan crystals was achieved by adding 100 μl 2-propanol. Complete dissolution of the formazan crystals were obtained after the trays have been placed on a plate shaker for 10 min. Finally, the absorbances were read in an eight-channel computer-controlled photometer (Multiskan MCC, Flow Laboratories) at two wavelengths (540 and 690 nm). The absorbance measured at 690 nm was automatically subtracted from the absorbance at 540 nm, so as to eliminate the effects of non-specific absorption.

[2] = Cytotoxicity in mock-infected HeLa cells (tetrazolium/MTT colorimetric assay); type: cell-based; details: human
Method: as §1
Automated tetrazolium-based colorimetric assays were used for determination of IC50 and CC50 of test compounds. Flat-bottom, 96-well plastic microtiter trays were filled with 180 μl of Eagle's Basal Medium, supplemented with 5% FCS (0% for FLU) and 20 mM Hepes buffer. Subsequently, stock solutions (7.8× final test concentration) of compounds were added in 45 μl volumes to a series of triplicate wells so as to allow simultaneous evaluation of their effects on virus- and mock-infected cells. Five five-fold dilutions were made directly in the microtiter trays using a robot system. Untreated virus controls, and HeLa cell controls were included in each test. Approximately 100 TCID50 of Respiratory Syncytial Virus was added to two of the three rows in a volume of 50 μl. […] Finally, the absorbances were read in an eight-channel computer-controlled photometer (Multiskan MCC, Flow Laboratories) at two wavelengths (540 and 690 nm). The absorbance measured at 690 nm was automatically subtracted from the absorbance at 540 nm, so as to eliminate the effects of non-specific absorption.

Compound: O=CNCCN1CCC(Nc2nc3ccccc3n2Cc2ccccn2)CC1 [Compound 18]
melting point: 146 °C

Compound: CCC(CN)N1CCC(Nc2nc3ccccc3n2Cc2ccccn2)CC1 (centres unmarked) [Compound 23]
melting point: 112 °C

Compound: CC(C)C(N)CN1CCC(Nc2nc3ccccc3n2Cc2ccccn2)CC1 (centres unmarked) [Compound 24]
melting point: 115 °C

Compound: Cc1ccc(O)c(Cn2c(NC3CCN(CCN)CC3)nc3c(C)cccc32)n1 [Compound 357]
SI (selectivity index, CC50 divided by IC50) [1]: >79
pIC50 [1]: 9.89
CC50 at 7 days ([2]; mock-infected HeLa cells, seven days, tetrazolium-based colorimetric assay): > 10 nM

More lines, main results first:

pIC50 [1]: 7.90
Compound: Cc1ccc(OCCO)c(Cn2c(NC3CCN(CCN)CC3)nc3ccccc32)n1 [Compound 27]
SI (selectivity index, CC50 divided by IC50) [1]: >7943
CC50 at 7 days [2]: > 100000 nM

melting point: 85 °C
Compound: CC(CN)N1CCC(Nc2nc3ccccc3n2C(C)c2ccccn2)CC1 (centres unmarked) [Compound 30]

melting point: 94 °C
Compound: NCCCCN1CCC(Nc2nc3ccccc3n2Cc2ccccn2)CC1 [Compound 31]
